Measurements: BindingDB's records for doi:10.1038/nchembio.2306 (AbbVie Inc, 2017)

Key:
Polycomb protein EED [1] = target: T1, Polycomb protein EED (Homo sapiens, UniProt O75530); assay: TR-FRET Binding Assay; conditions: pH 7.5; 25 °C
Protocol: (§1) The following buffer was used to set up the binding reactions: 20 mM Tris-HCl pH 7.5, 200 mM NaCl, 0.01% Tween-20, 10 μM DTT, and 0.05% BSA, with the DTT and BSA added fresh before initiating the binding assay. […] The reactions were then incubated for 1 h at 25 °C in a humidified chamber to obtain thermodynamic equilibrium before detection on the PerkinElmer Envision plate reader using a LanthaScreen TR-FRET protocol.

Polycomb protein EED [2] = target: T1, Polycomb protein EED; assay: Radioligand Binding Assay; conditions: 23 °C
Protocol: 30 μl of reaction mixtures were incubated at 23 °C for 70 min. To stop the enzymatic reactions, 150 μl of 10% trichloroacetic acetic acid (TCA) was added, mixed and transferred to filter plates (Millipore; cat. # MSFBN6B10). Plates were centrifuged at 2,000 r.p.m. (Allegra X-15R - Beckman Coulter, Inc.) for 2 min followed by two additional 10% TCA washes and one ethanol wash followed by centrifugation.

Polycomb protein EED [3] = target: T1, Polycomb protein EED; assay: EED A-395 Peptide Competition Assay; conditions: pH 7.5; 25 °C
Protocol: as §1, with “chamber” for “chamber to obtain thermodynamic equilibrium”, “an AlphaLISA/Screen” for “a LanthaScreen TR-FRET”

T1 sequence (O75530 whole entry): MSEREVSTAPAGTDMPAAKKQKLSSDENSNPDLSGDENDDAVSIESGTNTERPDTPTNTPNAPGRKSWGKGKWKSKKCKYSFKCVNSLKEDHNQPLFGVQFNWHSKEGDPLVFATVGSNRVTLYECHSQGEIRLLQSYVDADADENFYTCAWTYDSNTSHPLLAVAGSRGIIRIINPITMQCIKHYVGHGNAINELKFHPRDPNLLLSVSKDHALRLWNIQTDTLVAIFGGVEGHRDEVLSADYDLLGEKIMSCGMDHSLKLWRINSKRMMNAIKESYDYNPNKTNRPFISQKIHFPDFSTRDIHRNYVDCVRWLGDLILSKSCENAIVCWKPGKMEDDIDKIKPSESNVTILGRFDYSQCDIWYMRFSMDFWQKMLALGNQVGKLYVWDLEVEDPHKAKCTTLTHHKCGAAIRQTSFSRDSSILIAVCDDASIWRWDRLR

| Compound | Ki (Polycomb protein EED [1]) | IC50 (Polycomb protein EED [2]) | IC50 (Polycomb protein EED [3]) |
| --- | --- | --- | --- |
| Cc1cccc(F)c1CN1C[C@H](c2cn(C)c3ccccc23)[C@@H](N(C)C)C1 (racemic) [rac-(3R,4S)-1-(2-fluoro-6-methylbenzyl)-N,N-dimethyl-4-(1-methyl-1H-indol-3-yl)pyrrolidin-3-amine (2)] | 4 nM | – | – |
| CN(C)[C@@H]1CN(Cc2ccccc2)C[C@H]1c1ccc(N2CCN(S(C)(=O)=O)CC2)cc1 [A-395N (6)] | 1830 nM | > 50000 nM | 1320 nM |
| CN(C)[C@H]1CN([C@H]2CCc3cccc(F)c32)C[C@@H]1c1cn(C)c2ccccc12 [(3R,4S)-1-[(1S)-7-fluoroindan-1-yl]-N,N-dimethyl-4-(1-methylindol-3-yl)pyrrolidin-3-amine (3)] | 1 nM | – | – |
